From PMC5421785, “Citrullination only infrequently impacts peptide binding to HLA class II MHC” (PLoS ONE, 2017)
Read-outs that look alike come from different tables or passages of the source. Blank lines part the entries; values can stand above or below the compound they belong to. Square brackets hold non-standard residues; d marks the D form. Ends that are not written are not given here. Peptide text beside a SMILES is read from it. Cit = NC(=O)NCCC[C@H](N)C(=O)O

Key:
HLA-DRB1*04:01 = molecular target: T1, HLA-DRB1*04:01 (Homo sapiens, UniProt P01903+P01911, A100K/A169T/F76Y/I96L/K127E/L162R/M171V/N62H/P40V/Q125Y/R42H/S133A/S149N/S66Y/V115G/V209L/W38E); assay: HLA class II peptide binding, inhibition of radiolabeled peptide binding to purified MHC; conditions: for DRB1*04:01 binding capacity, WT/cit ratio: ratio of WT IC50 to Cit IC50
T1 construct: EBV transformed homozygous cell lines were used as sources of MHC molecules; endogenous in cells; host or cells: EBV transformed homozygous cell lines

HLA-DRB1*01:01 = molecular target: T2, HLA-DRB1*01:01 (Homo sapiens, UniProt P01903+P01911, A100R/D57E/F55L/F60I/F76Y/I96L/L162R/M171V/P40L/Q125E/R42F/V115G/Y59C); assay: as above; conditions: for DRB1*01:01 binding capacity, WT/cit ratio: ratio of WT IC50 to Cit IC50
T2 construct: EBV transformed homozygous cell lines were used as sources of MHC molecules; endogenous in cells; host or cells: EBV transformed homozygous cell lines

[1] = citrullinated 15-mer (X), purified MHC, inhibition of radiolabeled peptide binding, dash = IC50 >40,000 nM, read-out: DRB1*04:01 binding capacity, Cit peptide (IC50 nM)
[2] = citrullinated 15-mer (X), purified MHC, inhibition of radiolabeled peptide binding, dash = IC50 >40,000 nM, read-out: DRB1*01:01 binding capacity, Cit peptide (IC50 nM)
[3] = citrullinated 15-mer peptide (X = citrulline), purified HLA-DRB1*04:01, read-out: DRB1*04:01 binding capacity, Cit peptide (IC50 nM)
[4] = citrullinated 15-mer peptide (X = citrulline), purified HLA-DRB1*01:01, read-out: DRB1*01:01 binding capacity, Cit peptide (IC50 nM)
[5] = wild-type (unmodified Arg) 15-mer peptide, purified HLA-DRB1*04:01, read-out: DRB1*04:01 binding capacity, WT peptide (IC50 nM)
[6] = wild-type (unmodified Arg) 15-mer peptide, purified HLA-DRB1*01:01, read-out: DRB1*01:01 binding capacity, WT peptide (IC50 nM)
[7] = read-out: DRB1*04:01 binding capacity, WT peptide (IC50 nM)
[8] = read-out: DRB1*01:01 binding capacity, WT peptide (IC50 nM)
[9] = >1 = citrullination increases binding

IC50 (HLA-DRB1*04:01; [1]): > 40000 nM
IC50 (HLA-DRB1*01:01; [2]): 20400 nM
Compound: CC(C)C[C@H](NC(=O)[C@H](CCC(N)=O)NC(=O)[C@H](CC(=O)O)NC(=O)[C@@H](N)C(C)C)C(=O)N[C@H](C(=O)N[C@@H](CC(N)=O)C(=O)N[C@@H](CC(=O)O)C(=O)N[C@@H](CCCCN)C(=O)N[C@@H](C)C(=O)N[C@@H](CCCNC(N)=O)C(=O)N[C@H](C(=O)N[C@@H](CCC(=O)O)C(=O)N[C@H](C(=O)N[C@@H](CCC(=O)O)C(=O)N[C@@H](CCCNC(=N)N)C(=O)O)C(C)C)C(C)C)[C@@H](C)O [VDQLTNDKAXVEVER] (H-VDQLTNDKA[Cit]VEVER-OH)

IC50 (HLA-DRB1*04:01; [5]): 3740 nM
IC50 (HLA-DRB1*01:01; [6]): 96 nM
Compound: CC(C)C[C@H](NC(=O)[C@H](CC(N)=O)NC(=O)[C@@H](NC(=O)[C@H](CCC(=O)O)NC(=O)[C@H](CCCNC(=N)N)NC(=O)[C@H](CC(C)C)NC(=O)[C@H](CC(N)=O)NC(=O)[C@@H](N)CC(C)C)[C@@H](C)O)C(=O)N[C@@H](CC(=O)O)C(=O)N[C@@H](CO)C(=O)N[C@@H](CC(C)C)C(=O)N1CCC[C@H]1C(=O)N[C@@H](CC(C)C)C(=O)N[C@H](C(=O)N[C@@H](CC(=O)O)C(=O)O)C(C)C [Vimentin 421 WT]

IC50 (HLA-DRB1*04:01; [7]): 13900 nM
IC50 (HLA-DRB1*01:01; [8]): 4500 nM
Compound: ADLSEAANRNNDALR [Vimentin 296 WT]

IC50 (HLA-DRB1*04:01; [1]): 1280 nM
IC50 (HLA-DRB1*01:01; [2]): 16 nM
Compound: CC(C)C[C@H](NC(=O)[C@@H](N)CO)C(=O)N[C@@H](Cc1ccc(O)cc1)C(=O)N[C@@H](C)C(=O)N[C@@H](CO)C(=O)N[C@@H](CO)C(=O)N1CCC[C@H]1C(=O)NCC(=O)NCC(=O)N[C@H](C(=O)N[C@@H](Cc1ccc(O)cc1)C(=O)N[C@@H](C)C(=O)N[C@H](C(=O)N[C@@H](CCCNC(N)=O)C(=O)N[C@@H](CO)C(=O)O)[C@@H](C)O)C(C)C [SLYASSPGGVYATXS]

IC50 (HLA-DRB1*04:01; [1]): 6870 nM
IC50 (HLA-DRB1*01:01; [2]): 334 nM
Compound: CSCC[C@H](NC(=O)[C@H](CCCNC(=N)N)NC(=O)[C@H](CCCNC(=N)N)NC(=O)[C@@H](N)Cc1ccc(O)cc1)C(=O)N[C@@H](Cc1ccccc1)C(=O)NCC(=O)NCC(=O)N1CCC[C@H]1C(=O)NCC(=O)N[C@H](C(=O)N[C@@H](C)C(=O)N[C@@H](CO)C(=O)N[C@@H](CCCNC(N)=O)C(=O)N1CCC[C@H]1C(=O)N[C@@H](CO)C(=O)O)[C@@H](C)O [YRRMFGGPGTASXPS] (H-YRRMFGGPGTAS[Cit]PS-OH)

IC50 (HLA-DRB1*04:01; [1]): > 40000 nM
DRB1*04:01 binding capacity, WT/cit ratio (HLA-DRB1*04:01): 1.0
IC50 (HLA-DRB1*01:01; [2]): > 40000 nM
DRB1*01:01 binding capacity, WT/cit ratio (HLA-DRB1*01:01): 0.7
Compound: CSCC[C@H](NC(=O)[C@H](CCC(=O)O)NC(=O)[C@H](CCC(=O)O)NC(=O)[C@H](CCC(=O)O)NC(=O)[C@H](Cc1ccc(O)cc1)NC(=O)[C@H](CC(C)C)NC(=O)[C@H](CC(=O)O)NC(=O)CNC(=O)[C@H](CC(C)C)NC(=O)[C@H](CCCNC(N)=O)NC(=O)[C@H](CO)NC(=O)[C@H](CCCCN)NC(=O)CNC(=O)[C@@H](N)CCC(N)=O)C(=O)N[C@@H](CCCNC(=N)N)C(=O)O [QGKSXLGDLYEEEMR] (H-QGKS[Cit]LGDLYEEEMR-OH; N-terminus and C-terminus assumed)

IC50 (HLA-DRB1*04:01; [3]): > 40000 nM
IC50 (HLA-DRB1*01:01; [4]): 772 nM
Compound: CC(C)C[C@H](NC(=O)[C@H](CC(N)=O)NC(=O)[C@@H](N)[C@@H](C)O)C(=O)N[C@@H](CC(=O)O)C(=O)N[C@@H](CO)C(=O)N[C@@H](CC(C)C)C(=O)N1CCC[C@H]1C(=O)N[C@@H](CC(C)C)C(=O)N[C@H](C(=O)N[C@@H](CC(=O)O)C(=O)N[C@H](C(=O)N[C@@H](Cc1c[nH]cn1)C(=O)N[C@@H](CO)C(=O)N[C@@H](CCCCN)C(=O)N[C@@H](CCCNC(N)=O)C(=O)O)[C@@H](C)O)C(C)C [TNLDSLPLVDTHSKX] (H-TNLDSLPLVDTHSK[Cit]-OH)

IC50 (HLA-DRB1*04:01; [5]): 7570 nM
IC50 (HLA-DRB1*01:01; [6]): 527 nM
Compound: GEESRISLPLPNFSS [Vimentin 406 WT]

IC50 (HLA-DRB1*04:01; [7]): 31600 nM
IC50 (HLA-DRB1*01:01; [8]): 16500 nM
Compound: VDQLTNDKARVEVER [Vimentin 161 WT]

More lines, now with the values behind:

Compound: CC(C)C[C@H](NC(=O)[C@H](CCCNC(N)=O)NC(=O)[C@H](CO)NC(=O)[C@H](CCCCN)NC(=O)CNC(=O)[C@H](CCC(N)=O)NC(=O)CNC(=O)[C@H](CCCCN)NC(=O)[C@H](CC(C)C)NC(=O)[C@H](CCC(N)=O)NC(=O)[C@@H](N)CCC(=O)O)C(=O)NCC(=O)N[C@@H](CC(=O)O)C(=O)N[C@@H](CC(C)C)C(=O)N[C@@H](Cc1ccc(O)cc1)C(=O)O [EQLKGQGKSXLGDLY]
IC50 (HLA-DRB1*04:01; [1]): > 40000 nM
IC50 (HLA-DRB1*01:01; [2]): 5380 nM

Compound: C[C@H](NC(=O)CNC(=O)[C@H](C)NC(=O)[C@@H]1CCCN1C(=O)CNC(=O)[C@@H](NC(=O)[C@H](CCCNC(=N)N)NC(=O)CNC(=O)[C@H](CCCNC(N)=O)NC(=O)[C@@H](N)CCC(=O)O)[C@@H](C)O)C(=O)N[C@@H](C)C(=O)NCC(=O)N[C@@H](C)C(=O)N[C@@H](CCCNC(=N)N)C(=O)NCC(=O)O [EXGRTGPAGAAGARG] (H-E[Cit]GRTGPAGAAGARG-OH)
IC50 (HLA-DRB1*04:01; [3]): > 40000 nM
IC50 (HLA-DRB1*01:01; [4]): 1620 nM

Compound: CC(C)C[C@H](NC(=O)[C@H](CCC(N)=O)NC(=O)[C@H](CC(=O)O)NC(=O)[C@@H](NC(=O)[C@H](CCC(N)=O)NC(=O)[C@H](CCCNC(=N)N)NC(=O)[C@H](CCCNC(N)=O)NC(=O)[C@H](CC(C)C)NC(=O)[C@@H](N)CCC(=O)O)C(C)C)C(=O)N[C@H](C(=O)N[C@@H](CC(N)=O)C(=O)N[C@@H](CC(=O)O)C(=O)N[C@@H](CCCCN)C(=O)N[C@@H](C)C(=O)N[C@@H](CCCNC(=N)N)C(=O)O)[C@@H](C)O [ELXRQVDQLTNDKAR] (H-EL[Cit]RQVDQLTNDKAR-OH)
IC50 (HLA-DRB1*04:01; [1]): 13400 nM
IC50 (HLA-DRB1*01:01; [2]): 614 nM

Compound: CC[C@H](C)[C@H](NC(=O)[C@H](CCCNC(N)=O)NC(=O)[C@H](CS)NC(=O)[C@@H]1CCCN1)C(=O)N[C@@H](CS)C(=O)N[C@H](C(=O)N[C@@H](CS)C(=O)N[C@@H](CC(=O)O)C(=O)N[C@H](C(=O)NCC(=O)N[C@H](C(=O)N[C@H](C(=O)N[C@@H](CC(C)C)C(=O)N[C@@H](CS)C(=O)N[C@@H](CC(=O)O)C(=O)O)C(C)C)[C@@H](C)O)[C@@H](C)O)C(C)C [PCXICVCDTGTVLCD] (H-PC[Cit]ICVCDTGTVLCD-OH; N-terminus and C-terminus assumed)
DRB1*04:01 binding capacity, WT/cit ratio (HLA-DRB1*04:01; [9]): 1.2
DRB1*01:01 binding capacity, WT/cit ratio (HLA-DRB1*01:01; [9]): 0.463

Compound: CSCC[C@H](NC(=O)[C@H](CCC(=O)O)NC(=O)[C@H](CCC(=O)O)NC(=O)[C@@H](N)CCC(=O)O)C(=O)N[C@@H](CCCNC(=N)N)C(=O)N[C@@H](CCC(=O)O)C(=O)N[C@@H](CC(C)C)C(=O)N[C@@H](CCCNC(=N)N)C(=O)N[C@@H](CCCNC(N)=O)C(=O)N[C@@H](CCC(N)=O)C(=O)N[C@H](C(=O)N[C@@H](CC(=O)O)C(=O)N[C@@H](CCC(N)=O)C(=O)N[C@@H](CC(C)C)C(=O)N[C@H](C(=O)O)[C@@H](C)O)C(C)C [EEEMRELRXQVDQLT] (H-EEEMRELR[Cit]QVDQLT-OH)
IC50 (HLA-DRB1*04:01; [1]): 1280 nM
IC50 (HLA-DRB1*01:01; [2]): 686 nM

Compound: CC[C@H](C)[C@H](NC(=O)[C@@H](N)CCSC)C(=O)N[C@@H](CCCNC(N)=O)C(=O)N[C@@H](CC(C)C)C(=O)NCC(=O)N[C@@H](C)C(=O)N1CCC[C@H]1C(=O)N[C@@H](CCC(N)=O)C(=O)N[C@H](C(=O)N[C@@H](CC(C)C)C(=O)N[C@H](C(=O)N[C@@H](CC(C)C)C(=O)N[C@@H](CC(C)C)C(=O)N[C@H](C(=O)N[C@@H](CC(C)C)C(=O)O)[C@@H](C)O)C(C)C)[C@@H](C)O [MIXLGAPQTLVLLTL] (H-MI[Cit]LGAPQTLVLLTL-OH)
IC50 (HLA-DRB1*04:01; [3]): 641 nM
IC50 (HLA-DRB1*01:01; [4]): 15 nM
